Read-outs that look alike come from different tables or passages of the source.
Key:
Format in all cases: in vivo
[1] = tested on: winter barley (Hordeum vulgare); assay: Test B postemergence plant response
Procedure, shortened: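 Plants at the 1- to 4-leaf stage (2 to 18 cm tall), grown in pots of peat moss/vermiculite medium with wetting agent and starter nutrients, received postemergence applications of test chemicals. After 13 to 15 days in a greenhouse, injury was rated visually against untreated controls on a 0 (no effect) to 100 (complete control) scale.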

[2] = tested on: ducksalad (Heteranthera limosa); assay: Test B flooded paddy test
Procedure, shortened: (§1)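 Ratings are visual, 0–100 (100 = complete control), taken versus untreated controls 13 to 15 days after treatment in the greenhouse. Compound went straight into paddy water held 3 cm above soil, applied to 2-leaf-stage plants of four species.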

[3] = tested on: umbrella sedge (Cyperus difformis); assay: Test B flooded paddy test
Procedure, shortened: as §1

rice (Oryza sativa) = assay: Test B flooded paddy test
Procedure, shortened: as §1

[4] = tested on: barnyardgrass (Echinochloa crus-galli); assay: Test B flooded paddy test
Procedure, shortened: as §1

[5] = tested on: wheat (Triticum aestivum); assay: Test A pre-/postemergence plant response; conditions: Triticum aestivum, 240 h, read-out: Plant response rating, Wheat; for plant injury at 125 g/ha: 125 g ai/ha; for plant injury at 500 g/ha: 500 g ai/ha, approx. ten days
Procedure, shortened: (§2)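 Each species was treated preemergence via directed soil spray and postemergence at the one- to two-leaf stage, with compounds formulated in a non-phytotoxic solvent plus surfactant. Visual injury relative to untreated controls was rated after about ten days on a 0–100 scale.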

corn (Zea mays) = assay: Test A pre-/postemergence plant response; conditions: Zea mays, 240 h; for Corn plant response rating (crop injury, 0 = no effect, 100 = complete kill) at 125 g/ha: 125 g ai/ha; for Corn plant response rating (crop injury, 0 = no effect, 100 = complete kill) at 500 g/ha: 500 g ai/ha, approx. ten days
Procedure, shortened: as §2

[6] = tested on: velvetleaf (Abutilon theophrasti); assay: Test A pre-/postemergence plant response; conditions: Abutilon theophrasti, 240 h, read-out: Plant response rating, Velvetleaf; for pest or weed control at 125 g/ha: 125 g ai/ha; for pest or weed control at 500 g/ha: 500 g ai/ha, approx. ten days
Procedure, shortened: as §2

[7] = tested on: morningglory (Ipomoea spp.); assay: Test A pre-/postemergence plant response; conditions: Ipomoea, 240 h, read-out: Plant response rating, Morningglory; for pest or weed control at 125 g/ha: 125 g ai/ha; for pest or weed control at 500 g/ha: 500 g ai/ha, approx. ten days
Procedure, shortened: as §2

[8] = tested on: barnyardgrass (Echinochloa crus-galli); assay: Test A pre-/postemergence plant response; conditions: Echinochloa crus-galli, 240 h, read-out: Plant response rating, Barnyardgrass; for pest or weed control at 125 g/ha: 125 g ai/ha; for pest or weed control at 500 g/ha: 500 g ai/ha, approx. ten days
Procedure, shortened: as §2

[9] = tested on: pigweed (Amaranthus retroflexus); assay: Test A pre-/postemergence plant response; conditions: Amaranthus retroflexus, 240 h, read-out: Plant response rating, Pigweed; for pest or weed control at 125 g/ha: 125 g ai/ha; for pest or weed control at 500 g/ha: 500 g ai/ha, approx. ten days
Procedure, shortened: as §2

[10] = tested on: giant foxtail (Setaria faberii); assay: Test A pre-/postemergence plant response; conditions: Setaria faberi, 240 h, read-out: Plant response rating, Foxtail, Giant; for pest or weed control at 125 g/ha: 125 g ai/ha; for pest or weed control at 500 g/ha: 500 g ai/ha, approx. ten days
Procedure, shortened: as §2

[11] = tested on: large crabgrass (Digitaria sanguinalis); assay: Test A pre-/postemergence plant response; conditions: Digitaria sanguinalis, 240 h, read-out: Plant response rating, Crabgrass, Large; for pest or weed control at 125 g/ha: 125 g ai/ha; for pest or weed control at 500 g/ha: 500 g ai/ha, approx. ten days
Procedure, shortened: as §2

[12] = Flood, 31 g ai/ha, scale 0 to 100 (0 no effect, 100 complete control)
[13] = post-emergence, Postemergence, 0 to 100 scale where 0 is no effect and 100 is complete control
[14] = post-emergence, Postemergence, 0 to 100 scale, 0 = no effect, 100 = complete control
[15] = pre-emergence, Preemergence, 0 to 100 scale, 0 = no effect, 100 = complete control
[16] = pre-emergence, Preemergence, visual injury, 0 to 100 scale (0 no effect, 100 complete control)

COCCn1c(-c2ccsc2)ncc(C(=O)C2=C(O)CCCC2=O)c1=O [Compound 97, 5-[(2-hydroxy-6-oxo-1-cyclohexen-1-yl)carbonyl]-3-(2-methoxyethyl)-2-(3-thienyl)-4(3H)-pyrimidinone]
Barley plant response rating (0 to 100 scale) ([1]; 62 g ai/ha, postemergence, 0 is no effect, 100 is complete control, 13 to 15 days): 0
plant injury at 31 g/ha ([1]; Hordeum vulgare, post-emergence, 31 g ai/ha, postemergence, scale 0 to 100, 0 is no effect, 100 is complete control, read-out: Plant response rating, Barley): 0%
plant injury at 125 g/ha ([1]; Hordeum vulgare, post-emergence, Postemergence, 125 g ai/ha, visual rating after 13 to 15 days, scale 0 (no effect) to 100 (complete control)): 0%
plant injury at 250 g/ha ([1]; Hordeum vulgare, post-emergence, Postemergence, 250 g ai/ha, scale 0 to 100 (0 no effect, 100 complete control), read-out: Plant response rating, Barley): 5%
Ducksalad plant response rating [2, 12]: 30
pest or weed control at 250 g/ha ([2]; Heteranthera limosa, 360 h, 250 g ai/ha, flooded paddy test, visual rating on 0 to 100 scale (0 no effect, 100 complete control) after 13 to 15 days, read-out: Plant response rating, Flood, Ducksalad): 70%
pest or weed control at 62 g/ha ([2]; Heteranthera limosa, 360 h, Flood (flooded paddy test), 62 g ai/ha, scale of 0 to 100 where 0 is no effect and 100 is complete control, 13 to 15 days, read-out: Plant response rating, Ducksalad): 30%
pest or weed control at 125 g/ha ([2]; Heteranthera limosa, 360 h, Flood (flooded paddy test), 125 g ai/ha, scale 0 to 100, 0 is no effect, 100 is complete control, 13 to 15 days, read-out: Plant response rating, Ducksalad): 30%
pest or weed control at 250 g/ha ([3]; Cyperus difformis, 360 h, 250 g ai/ha, flooded paddy test, visual rating on 0 to 100 scale (0 no effect, 100 complete control) after 13 to 15 days, read-out: Plant response rating, Flood, Sedge, Umbrella): 80%
pest or weed control at 62 g/ha ([3]; Cyperus difformis, 360 h, Flood (flooded paddy test), 62 g ai/ha, scale of 0 to 100 where 0 is no effect and 100 is complete control, 13 to 15 days, read-out: Plant response rating, Sedge, Umbrella): 40%
pest or weed control at 125 g/ha ([3]; Cyperus difformis, 360 h, Flood (flooded paddy test), 125 g ai/ha, scale 0 to 100, 0 is no effect, 100 is complete control, 13 to 15 days, read-out: Plant response rating, Sedge, Umbrella): 70%
Sedge, Umbrella plant response rating [3, 12]: 30
Rice plant response rating (rice (Oryza sativa); [12]): 0
plant injury at 250 g/ha (rice (Oryza sativa); Oryza sativa, 250 g ai/ha, flooded paddy test, visual rating on 0 to 100 scale (0 no effect, 100 complete control) after 13 to 15 days, read-out: Plant response rating, Flood, Rice): 40%
plant injury at 62 g/ha (rice (Oryza sativa); Oryza sativa, Flood (flooded paddy test), 62 g ai/ha, scale of 0 to 100 where 0 is no effect and 100 is complete control, 13 to 15 days, read-out: Plant response rating, Rice): 0%
plant injury at 125 g/ha (rice (Oryza sativa); Oryza sativa, Flood (flooded paddy test), 125 g ai/ha, scale 0 to 100, 0 is no effect, 100 is complete control, 13 to 15 days, read-out: Plant response rating, Rice): 0%
pest or weed control at 250 g/ha ([4]; Echinochloa crus-galli, 360 h, 250 g ai/ha, flooded paddy test, visual rating on 0 to 100 scale (0 no effect, 100 complete control) after 13 to 15 days, read-out: Plant response rating, Flood, Barnyardgrass): 75%
pest or weed control at 62 g/ha ([4]; Echinochloa crus-galli, 360 h, Flood (flooded paddy test), 62 g ai/ha, scale of 0 to 100 where 0 is no effect and 100 is complete control, 13 to 15 days, read-out: Plant response rating, Barnyardgrass): 40%
pest or weed control at 125 g/ha ([4]; Echinochloa crus-galli, 360 h, Flood (flooded paddy test), 125 g ai/ha, scale 0 to 100, 0 is no effect, 100 is complete control, 13 to 15 days, read-out: Plant response rating, Barnyardgrass): 60%
Barnyardgrass plant response rating [4, 12]: 30
plant injury at 125 g/ha [5, 13]: 0%
plant injury at 500 g/ha [5, 14]: 20%
plant injury at 125 g/ha [5, 15]: 0%
plant injury at 500 g/ha [5, 16]: 0%
Corn plant response rating (crop injury, 0 = no effect, 100 = complete kill) at 125 g/ha (corn (Zea mays); [13]): 50%
Corn plant response rating (crop injury, 0 = no effect, 100 = complete kill) at 500 g/ha (corn (Zea mays); [14]): 80%
Corn plant response rating (crop injury, 0 = no effect, 100 = complete kill) at 125 g/ha (corn (Zea mays); [15]): 0%
Corn plant response rating (crop injury, 0 = no effect, 100 = complete kill) at 500 g/ha (corn (Zea mays); [16]): 0%
pest or weed control at 125 g/ha [6, 13]: 100%
pest or weed control at 500 g/ha [6, 14]: 100%
pest or weed control at 125 g/ha [6, 15]: 100%
pest or weed control at 500 g/ha [6, 16]: 100%
pest or weed control at 125 g/ha [7, 13]: 100%
pest or weed control at 500 g/ha [7, 14]: 100%
pest or weed control at 125 g/ha [7, 15]: 70%
pest or weed control at 500 g/ha [7, 16]: 80%
pest or weed control at 125 g/ha [8, 13]: 90%
pest or weed control at 500 g/ha [8, 14]: 90%
pest or weed control at 125 g/ha [8, 15]: 60%
pest or weed control at 500 g/ha [8, 16]: 100%
pest or weed control at 125 g/ha [9, 13]: 100%
pest or weed control at 500 g/ha [9, 14]: 100%
pest or weed control at 125 g/ha [9, 15]: 100%
pest or weed control at 500 g/ha [9, 16]: 100%
pest or weed control at 125 g/ha [10, 13]: 60%
pest or weed control at 500 g/ha [10, 14]: 80%
pest or weed control at 125 g/ha [10, 15]: 60%
pest or weed control at 500 g/ha [10, 16]: 90%
pest or weed control at 125 g/ha [11, 13]: 80%
pest or weed control at 500 g/ha [11, 14]: 100%
pest or weed control at 125 g/ha [11, 15]: 100%
pest or weed control at 500 g/ha [11, 16]: 100%

Source: patent US8952024B2, “Herbicidal pyrimidone derivatives” (E I du Pont de Nemours and Company, priority 2009, dated 2015)
